According to PubChem BioAssay AID248 (DTP/NCI, 2004):
Where “and” joins values, the source holds several entries; their conditions need not be identical. Equal entries are not always repeated. Toxic doses and inconclusive results are not listed. No stated cut-off is given here; in the data, active means T/C of 150% or more; inactive means T/C below 125%. Square brackets hold non-standard residues; d marks the D form. Peptide text beside a SMILES is read from it. * marks the point of attachment. ξ: configuration not given here. Trt = c1ccc(C(c2ccccc2)(c2ccccc2)*)cc1; Cbz = O=C(OCc1ccccc1)*; ξL = CC(C)CC(N)C(=O)O; OBn = c1ccc(CO*)cc1

Tested on: L1210 leukemia ip in BDF1 mice, survival T/C
Test: NCI In Vivo Anticancer Drug Screen. Data for tumor model L1210 Leukemia (intraperitoneal) in B6D2F1 (BDF1) mice
Conditions: endpoint: mean survival time, higher = longer survival
Summary of the method: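 Read-out is survival time, reported as the treated-group measurement over the vehicle-control measurement.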

[1] = dose: 50.0 mg/kg/injection, schedule: Q01DX009 (ip), vehicle: saline
[2] = dose: 100.0 mg/kg/injection, schedule: Q01DX009 (ip), vehicle: saline
[3] = dose: 100.0 mg/kg/injection, schedule: Q04DX002 (ip), vehicle: saline with Tween-80
[4] = dose: 100.0 mg/kg/injection, schedule: Q04DX003 (ip), vehicle: saline
[5] = dose: 100.0 mg/kg/injection, schedule: Q04DX003 (ip), vehicle: Klucel (hydroxypropylcellulose) (HPC)
[6] = dose: 200.0 mg/kg/injection, schedule: Q04DX003 (ip), vehicle: Klucel (hydroxypropylcellulose) (HPC)
[7] = dose: 400.0 mg/kg/injection, schedule: Q04DX003 (ip), vehicle: Klucel (hydroxypropylcellulose) (HPC)
[8] = dose: 100.0 mg/kg/injection, schedule: Q01DX009 (ip), vehicle: saline with Tween-80
[9] = dose: 200.0 mg/kg/injection, schedule: Q01DX009 (ip), vehicle: saline with Tween-80
[10] = dose: 200.0 mg/kg/injection, schedule: Q01DX001 (ip), vehicle: saline
[11] = dose: 400.0 mg/kg/injection, schedule: Q01DX001 (ip), vehicle: saline
[12] = dose: 100.0 mg/kg/injection, schedule: Q01DX001 (ip), vehicle: carboxymethylcellulose (CMC)
[13] = dose: 200.0 mg/kg/injection, schedule: Q01DX001 (ip), vehicle: carboxymethylcellulose (CMC)
[14] = dose: 400.0 mg/kg/injection, schedule: Q01DX001 (ip), vehicle: carboxymethylcellulose (CMC)
[15] = dose: 200.0 mg/kg/injection, schedule: Q04DX002 (ip), vehicle: saline with Tween-80
[16] = dose: 400.0 mg/kg/injection, schedule: Q04DX002 (ip), vehicle: saline with Tween-80
[17] = dose: 50.0 mg/kg/injection, schedule: Q01DX009 (ip), vehicle: saline with Tween-80
[18] = dose: 100.0 mg/kg/injection, schedule: Q01DX009 (ip), vehicle: Klucel (hydroxypropylcellulose) (HPC)
[19] = dose: 200.0 mg/kg/injection, schedule: Q01DX009 (ip), vehicle: Klucel (hydroxypropylcellulose) (HPC)
[20] = dose: 400.0 mg/kg/injection, schedule: Q01DX009 (ip), vehicle: Klucel (hydroxypropylcellulose) (HPC)
[21] = dose: 100.0 mg/kg/injection, schedule: Q04DX002 (ip), vehicle: saline
[22] = dose: 200.0 mg/kg/injection, schedule: Q04DX002 (ip), vehicle: saline

Measured: T/C

CN(C)CCC(=O)/C=C\c1ccccc1
inactive: dose: 25.0 mg/kg/injection, schedule: Q01DX009 (ip), vehicle: saline 91 % of control | dose: 25.0 mg/kg/injection, schedule: Q04DX002 (ip), vehicle: saline with Tween-80 105 % of control | dose: 25.0 mg/kg/injection, schedule: Q04DX003 (ip), vehicle: saline 89 % of control | [1] 88 % of control | dose: 50.0 mg/kg/injection, schedule: Q04DX002 (ip), vehicle: saline with Tween-80 98 % of control | dose: 50.0 mg/kg/injection, schedule: Q04DX003 (ip), vehicle: saline 90 % of control | [2] 88 % of control | [3] 88 % of control | [4] 89 % of control

CCOC(=O)c1cnc(=O)[nH]c1Nc1ccccc1Br
inactive: dose: 100.0 mg/kg/injection, schedule: Q04DX003 (ip), vehicle: gum acacia 95 % of control | dose: 200.0 mg/kg/injection, schedule: Q04DX003 (ip), vehicle: gum acacia 90 % of control | dose: 400.0 mg/kg/injection, schedule: Q04DX003 (ip), vehicle: gum acacia 95 % of control

CCOC(=O)Sc1ccccc1
inactive: dose: 100.0 mg/kg/injection, schedule: Q01DX001 (ip), vehicle: other 102 % of control | dose: 200.0 mg/kg/injection, schedule: Q01DX001 (ip), vehicle: other 94 % of control

COC(=O)C(NC(=O)C(N)CSC(c1ccccc1)(c1ccccc1)c1ccccc1)C(C)C (stereo unspecified) (H-Cys(Trt)-Val-OMe; configuration not given here)
inactive: [1] 104 % of control and 118 % of control | [2] 109 % of control | dose: 400.0 mg/kg/injection, schedule: Q01DX009 (ip), vehicle: saline 104 % of control

CCOc1ccc2nc(C)cc(C)c2c1
inactive: dose: 100.0 mg/kg/injection, schedule: Q04DX002 (ip), vehicle: Klucel (hydroxypropylcellulose) (HPC) 98 % of control | dose: 200.0 mg/kg/injection, schedule: Q04DX002 (ip), vehicle: Klucel (hydroxypropylcellulose) (HPC) 112 % of control

CC(C)CC(NC(=O)CNC(=O)CNC(=O)OCc1ccccc1)C(=O)OCc1ccccc1 (stereo not drawn) (Cbz-Gly-Gly-[ξL]-OBn)
inactive: [5] 94 % of control | [6] 96 % of control | [7] 100 % of control

O=C(O)c1ccc(OCC(=O)c2ccccc2)cc1
inactive: [8] 98 % of control | [9] 89 % of control

CN1C(=O)C(C)(C)C(=O)C1(C)C
inactive: [10] 100 % of control | [11] 117 % of control

CCN(c1ccccc1)S(=O)(=O)C(C)S(=O)(=O)N(CC)c1ccccc1
inactive: dose: 100.0 mg/kg/injection, schedule: Q01DX001 (ip), vehicle: saline with Tween-80 97 % of control | dose: 200.0 mg/kg/injection, schedule: Q01DX001 (ip), vehicle: saline with Tween-80 94 % of control | dose: 400.0 mg/kg/injection, schedule: Q01DX001 (ip), vehicle: saline with Tween-80 103 % of control

CCOC(=O)CCCc1ccc(N=NN(C)CC(C)C)cc1
inactive: [12] 107 % of control | dose: 100.0 mg/kg/injection, schedule: Q01DX009 (ip), vehicle: carboxymethylcellulose (CMC) 116 % of control | [13] 102 % of control | dose: 200.0 mg/kg/injection, schedule: Q01DX009 (ip), vehicle: carboxymethylcellulose (CMC) 107 % of control | [14] 113 % of control

Cc1ccc(S(=O)(=O)OC2C(C(O)CO)OC3OC(C)(C)OC32)cc1 (stereo unspecified)
inactive: [3] 90 % of control | [15] 97 % of control | [16] 101 % of control

Cc1c2ccncc2c(C)c2c1[nH]c1ccc(Cl)cc12
inactive: dose: 37.5 mg/kg/injection, schedule: Q01DX001 (oral), vehicle: saline with Tween-80 102 % of control | [17] 96 % of control | dose: 50.0 mg/kg/injection, schedule: Q04DX003 (ip), vehicle: saline with Tween-80 104 % of control | dose: 75.0 mg/kg/injection, schedule: Q01DX001 (oral), vehicle: saline with Tween-80 103 % of control | [8] 94 % of control | dose: 100.0 mg/kg/injection, schedule: Q04DX003 (ip), vehicle: saline with Tween-80 98 % of control | dose: 150.0 mg/kg/injection, schedule: Q01DX001 (oral), vehicle: saline with Tween-80 97 % of control | dose: 200.0 mg/kg/injection, schedule: Q01DX001 (oral), vehicle: saline with Tween-80 108 % of control | [9] 92 % of control | dose: 200.0 mg/kg/injection, schedule: Q04DX003 (ip), vehicle: saline with Tween-80 90 % of control | dose: 400.0 mg/kg/injection, schedule: Q01DX001 (oral), vehicle: saline with Tween-80 107 % of control | dose: 800.0 mg/kg/injection, schedule: Q01DX001 (oral), vehicle: saline with Tween-80 113 % of control

COC(=O)/C(=C/c1ccccc1)CBr
inactive: [17] 94 % of control | [8] 102 % of control

O=C(Nc1ccc2ccccc2c1)c1ccccc1Cl
inactive: [18] 93 % of control | [19] 101 % of control | [20] 101 % of control

Cn1c(=O)c2c(nc(OCC3CC4CCC3C4)n2C)n(C)c1=O (stereo unspecified)
inactive: dose: 100.0 mg/kg/injection, schedule: Q01DX001 (ip), vehicle: saline 96 % of control | [10] 108 % of control | [11] 108 % of control

CCCCC[CH2][Sn]([CH2]C)([CH2]C)[CH2]C
inactive: [21] 93 % of control | [22] 93 % of control

CNC(=O)Oc1c(C)cccc1C
inactive: [3] 103 % of control | [15] 106 % of control | [16] 95 % of control

O=C(O)c1sc(C(=O)O)c(O)c1O
inactive: dose: 12.5 mg/kg/injection, schedule: Q01DX001 (ip), vehicle: saline with Tween-80 111 % of control | dose: 25.0 mg/kg/injection, schedule: Q01DX001 (ip), vehicle: saline with Tween-80 103 % of control | dose: 50.0 mg/kg/injection, schedule: Q01DX001 (ip), vehicle: saline with Tween-80 100 % of control

CCN(CC)CCOC(=O)C1C2CC3OC(=O)C1C3C2 (stereo unspecified)
inactive: [4] 108 % of control | dose: 200.0 mg/kg/injection, schedule: Q04DX003 (ip), vehicle: saline 95 % of control | dose: 400.0 mg/kg/injection, schedule: Q04DX003 (ip), vehicle: saline 92 % of control

O=C(O)CCCC(CC(=O)O)c1ccccc1 (stereo unspecified)
inactive: dose: 50.0 mg/kg/injection, schedule: Q04DX002 (ip), vehicle: saline 108 % of control | [21] 104 % of control | [22] 101 % of control

CCC(O)(COC(N)=O)c1ccccc1 (stereo unspecified)
inactive: [12] 97 % of control | [13] 108 % of control | [14] 94 % of control

COC(=O)N/N=C/c1c[nH]c2ccccc12
inactive: [18] 94 % of control | [19] 106 % of control

NC(=S)NNC1CCCCC1
inactive: dose: 22.0 mg/kg/injection, schedule: Q01DX Z (ip), vehicle: methylcellulose (MC) 94 % of control | dose: 33.0 mg/kg/injection, schedule: Q01DX Z (ip), vehicle: methylcellulose (MC) 117 % of control | dose: 50.0 mg/kg/injection, schedule: Q01DX Z (ip), vehicle: methylcellulose (MC) 93 % of control

CC(C)c1ccc2c(c1)CCC1C2CCCC1(C)NCc1ccccc1 (stereo unspecified)
inactive: dose: 55.0 mg/kg/injection, schedule: Q01DX Z (ip), vehicle: methylcellulose (MC) 87 % of control

OCC1OC([Se])C(O)C(O)C1O.[CH3][Sb][CH3] (stereo unspecified)
inactive: dose: 3.13 mg/kg/injection, schedule: Q01DX009 (ip), vehicle: Klucel (hydroxypropylcellulose) (HPC) 99 % of control | dose: 6.25 mg/kg/injection, schedule: Q01DX009 (ip), vehicle: Klucel (hydroxypropylcellulose) (HPC) 96 % of control and 98 % of control | dose: 12.5 mg/kg/injection, schedule: Q01DX009 (ip), vehicle: Klucel (hydroxypropylcellulose) (HPC) 99 % of control and 104 % of control | dose: 25.0 mg/kg/injection, schedule: Q01DX009 (ip), vehicle: Klucel (hydroxypropylcellulose) (HPC) 91 % of control

Nc1cc(N)cc(Cc2ccccc2)c1
inactive: dose: 50.0 mg/kg/injection, schedule: Q01DX009 (ip), vehicle: Klucel (hydroxypropylcellulose) (HPC) 100 % of control | [18] 95 % of control | [5] 100 % of control | [19] 103 % of control | [6] 102 % of control | [20] 92 % of control | [7] 98 % of control
